Measured values reported in patent publication US20120095062A1, “TRICYCLIC COMPOUNDS, COMPOSITIONS, AND METHODS” (Pfizer Inc., priority 2007, published 2012).
Like-named read-outs stand apart in the source and are kept apart here. One block for each compound: values may come before it.

Key:
[1] = Plasma exposure (AUC) in the mouse; assay type: in vivo
Serum osteocalcin = Serum osteocalcin suppression, 28-day repeat dose mouse model; assay type: in vivo, mice; settings: for ED50: Mus musculus, 672 h, mice, oral gavage 28 days, serum osteocalcin
[2] = system: IL-6, Human A549 lung epithelial cells; experiment: IL-6 inhibition in IL-1β-stimulated A549 cells; assay type: cell-based; settings: for inhibition: A549, A549 cells, Prednisolone (1 μM) = 100% inhibition control
Method: Human A549 lung epithelial cells (American Type Culture Collection, Rockville, Md.) were cultured in Kaighn's F-12K medium with penicillin-streptomycin (10 U/mL) and 10% heat-inactivated fetal bovine serum (all from Invitrogen, Grand Island, N.Y.). A549 cells were plated at a density of 30,000 cells/well in 96-well plates and incubated overnight at 37° C. and with 5% CO2. The cells were serum-starved by replacing the growth medium with serum-free Kaighn's F-12K medium with penicillin-streptomycin (10 U/mL) and, again, incubating overnight at 37° C. and with 5% CO2. On the third day, the medium was replaced with fresh serum-free medium and the cells were incubated with or without compound (vehicle was DMSO at 0.1% maximum concentration) for approximately 1 hour and then stimulated with 1 ng/mL recombinant human IL-1β (R&D Systems, Minneapolis, Minn.) for 20 hours at 37° C. and with 5% CO2. Cell supernatants were collected for determination of IL-6 levels using MSD (Meso Scale Discovery, Gaithersburg, Md.) 96-well Single Spot plates as per the manufacturer's instructions. Plates were read with an MSD Sector Imager 6000. […] Vehicle was used to define the 0% inhibition control. Percent inhibition for each compound concentration, relative to these controls, was calculated using Excel (Microsoft, Redmond, Wash.). IC50 values were generated using GraFit 5.0 data analysis software (Erithacus Software Ltd., Surrey, UK).

LPS-induced serum TNFα = LPS-induced serum TNFα suppression, 28-day repeat dose mouse model; assay type: in vivo; settings: 672 h, mice, oral gavage 28 days
[3] = system: Cortical bone formation rate; experiment: Cortical bone histomorphometry, bone formation rate (BFR); assay type: in vivo, mice; settings: 28-day repeat dose model; the 11th table
Method: Sigma-Aldrich, St. […] Calcein incorporates into the bone mineral and allows measurement of bone formation rate. Calcein was dissolved in 2% sodium bicarbonate. During the tissue harvest, the left tibiae were excised and cleaned for cortical histomorphometry measurements. After all skin and muscle were removed, tibiae were placed in 70% ethanol (4° C.) in the dark for a minimum of 24 hours. Ground transverse sections were used for histomorphometric analysis of cortical bone. Bones were sectioned using a low-speed saw (lsomet, Buehler, Lake Bluff, Ill.) equipped with a diamond wafer blade. The end of each tibia was removed proximal to tibia-fibula synostosis and a […] cross-section was cut. Using a roughened glass plate and a cork, sections were ground to […] until transparent and all labels were distinguishable under a fluorescent microscope. […] Sigma-Aldrich, St. Louis, Mo.). Sections were mounted using Eukitt Quick Mounting Medium (#03989, Sigma-Aldrich, St. Louis, Mo.) after which coverslip was applied. […] Bone formation rate was calculated by the following equation: (Inter-label width/Label interval)*(Labeled perimeter/Bone perimeter). At least five samples were measured from each treatment group in each study.

[4] = system: Mouse Collagen-induced arthritis; experiment: Therapeutic mouse collagen-induced arthritis (mCIA) model; assay type: in vivo; settings: mice, dosing day 34 through day 49, read-out: Therapeutic mCIA (ED50 dose)
From the text: Mouse Collagen-induced arthritis is a commonly used chronic, preclinical model of rheumatoid arthritis in which joint swelling and bone destruction occur following immunization with type II collagen. Reduction of disease incidence and severity has been shown previously to be predictive of disease-modification and signs and symptoms mitigation, respectively, in a clinical setting.
In the therapeutic mCIA model, induction of disease incidence and severity was synchronized via LPS stimulation. Male […] mice were immunized with 100 ug of bovine type II collagen (bCII) on day 0. All mice received an intraperitoneal injection of 20 μg of LPS on day 28 and disease was allowed to develop through day 34. At day 34, all mice had disease (incidence=100%) with an average severity score of seven. Dosing of compounds was initiated in the therapeutic mode on day 34 and continued through day 49. Different treatments were compared by measuring the decrease in incidence (i.e., resolution of disease) and the decrease in severity of paw swelling over time.

TNFα, U937 cells = experiment: TNFα inhibition in LPS-stimulated differentiated U937 cells; assay type: cell-based; settings: Homo sapiens
Method: Cells were differentiated to a monocyte/macrophage phenotype with phorbol 12-myristate 13-acetate (Sigma-Aldrich, St. Louis, Mo.), 20 ng/mL, overnight. […] Following recovery, the cells were scraped, counted, and plated in accordance to the experimental design prior to stimulation with LPS, as described below. U937 cells were differentiated and plated at a density of 200,000 cells/well in 96-well plates. […] Louis, Mo.) for four hours at 37° C. and with 5% CO2. Cell supernatants were collected for determination of TNFα levels using an in-house sandwich-type ELISA. Mouse anti-human TNFα monoclonal antibody (clone 28401.111) and biotinylated goat anti-human TNFα (R&D Systems, Minneapolis, Minn.) were used as the capture and detection antibodies, respectively. Streptavidin-horseradish peroxidase (HRP) (R&D Systems, Minneapolis, Minn.) and K-Blue Substrate/Red Stop (Neogen, Lexington, Ky.) were used as the detection system. Absorbance was measured at 650 nm. TNFα concentrations were interpolated from a human TNFα recombinant protein (R&D Systems, Minneapolis, Minn.) standard curve using a four parameter logistics model by Magellan 4.11 data analysis software (Tecan, Durham, N.C.). […] Vehicle was used to define the 0% inhibition control. Percent inhibition for each concentration of compound, relative to these controls, was calculated using Excel (Microsoft, Redmond, Wash.).

[5] = A549, 20 h, A549 cells, 1 ng/mL IL-1β, 20 hours, read-out: IL-6 IC50

- AUC(0-4 hr) as share of the AUC(0-24 hr) values [1]: more than 95%
Structure (SMILES): Cc1ncccc1NC(=O)c1ccc2c(c1)CC[C@@H]1C[C@@](O)(C(F)(F)F)CC[C@@]21Cc1ccccc1 [Example 1, (4βS,7R,8αR)-4β-benzyl-7-hydroxy-N-(2-methylpyridin-3-yl)-7-(trifluoromethyl)-4β,5,6,7,8,8α,9,10-octahydrophenanthrene-2-carboxamide]

Structure (SMILES): C[C@]12C=CC(=O)C=C1CC[C@@H]1[C@@H]2[C@@H](O)C[C@@]2(C)[C@H]1CC[C@]2(O)C(=O)CO [Prednisolone]
- Serum osteocalcin (OC) EAUC50 (Serum osteocalcin; 28-day repeat dose model, the 11th table): 0.56 µg·h/mL
- ED50 (Serum osteocalcin): 1 mg/kg
- IC50 [2, 5]: 4.2 nM
- inhibition [2]: 102%
- IC50 ([2]; A549, value in brackets, footnote a: additional results that were found, read-out: IL-6 IC50 (nM), additional result): 4.6 nM
- AUC(0-4 hr) as share of the AUC(0-24 hr) values [1]: more than 95%
- ED50 (LPS-induced serum TNFα): 0.9 mg/kg
- Cortical bone formation rate (BFR) EAUC50 [3]: 0.1 µg·h/mL
- ED50 [4]: 1.1 mg/kg
- IC50 (TNFα, U937 cells; U-937, 4 h, U937 cells, 100 ng/mL LPS, four hours, read-out: TNFα IC50): 14.9 nM
- IC50 (TNFα, U937 cells; U-937, value in brackets, footnote a: additional results that were found, read-out: TNFα IC50 (nM), additional result): 15.6 nM

Structure (SMILES): Cc1ncc(NC(=O)c2ccc3c(c2)CC[C@@H]2C[C@@](O)(CCC(F)(F)F)CC[C@@]32Cc2ccccc2)c(C)n1 [Comparator J, (4βS,7S,8αR)-4β-benzyl-N-(2,4-dimethylpyrimidin-5-yl)-7-hydroxy-7-(3,3,3-trifluoropropyl)-4β,5,6,7,8,8α,9,10-octahydrophenanthrene-2-carboxamide]
- ED50 (Serum osteocalcin): 0.73 mg/kg
- IC50 [2, 5]: 291 nM
- inhibition [2]: 55%
- ED50 (LPS-induced serum TNFα): 0.09 mg/kg
- ED50 [4]: 3 mg/kg

Structure (SMILES): Cc1ncccc1NC(=O)c1ccc2c(c1)CC[C@@H]1C[C@@](O)(CCC(F)(F)F)CC[C@@]21Cc1ccccc1 [Comparator C, (4βS,7R,8αR)-4β-benzyl-7-hydroxy-N-(2-methylpyridin-3-yl)-7-(3,3,3-trifluoropropyl)-4β,5,6,7,8,8α,9,10-octahydrophenanthrene-2-carboxamide]
- ED50 (Serum osteocalcin): 1.01 mg/kg
- IC50 [2, 5]: 1.1 nM
- inhibition [2]: 82.6%
- ED50 (LPS-induced serum TNFα): 0.27 mg/kg
- ED50 [4]: 2 mg/kg

Structure (SMILES): Cc1ncccc1NC(=O)c1ccc2c(c1)[C@H](O)C[C@@H]1C[C@@](O)(C(F)(F)F)CC[C@@]21Cc1ccccc1 [Comparator F, (4βS,7R,8αR,10R)-4β-benzyl-7,10-dihydroxy-N-(2-methylpyridin-3-yl)-7-(trifluoromethyl)-4β,5,6,7,8,8α,9,10-octahydrophenanthrene-2-carboxamide]
- ED50 (Serum osteocalcin): 1.19 mg/kg
- IC50 [2, 5]: 7 nM
- inhibition [2]: 83.3%
- ED50 (LPS-induced serum TNFα): 2.11 mg/kg
- ED50 [4]: > 10 mg/kg

Structure (SMILES): Cc1cnc(NC(=O)c2ccc3c(c2)CC[C@@H]2C[C@@](O)(C(F)(F)F)CC[C@@]32Cc2ccccc2)c(C)n1 [Comparator B, (4βS,7R,8αR)-4β-benzyl-N-(3,5-dimethylpyrazin-2-yl)-7-hydroxy-7-(trifluoromethyl)-4β,5,6,7,8,8α,9,10-octahydrophenanthrene-2-carboxamide]
- ED50 (Serum osteocalcin): 2.39 mg/kg
- IC50 [2, 5]: 4 nM
- inhibition [2]: 75.8%
- ED50 (LPS-induced serum TNFα): 1.64 mg/kg
- ED50 [4]: 2.9 mg/kg
